The target of one experiment is T1, Activin receptor type-1B (Homo sapiens, UniProt P36896).
T1 sequence (P36896 whole entry): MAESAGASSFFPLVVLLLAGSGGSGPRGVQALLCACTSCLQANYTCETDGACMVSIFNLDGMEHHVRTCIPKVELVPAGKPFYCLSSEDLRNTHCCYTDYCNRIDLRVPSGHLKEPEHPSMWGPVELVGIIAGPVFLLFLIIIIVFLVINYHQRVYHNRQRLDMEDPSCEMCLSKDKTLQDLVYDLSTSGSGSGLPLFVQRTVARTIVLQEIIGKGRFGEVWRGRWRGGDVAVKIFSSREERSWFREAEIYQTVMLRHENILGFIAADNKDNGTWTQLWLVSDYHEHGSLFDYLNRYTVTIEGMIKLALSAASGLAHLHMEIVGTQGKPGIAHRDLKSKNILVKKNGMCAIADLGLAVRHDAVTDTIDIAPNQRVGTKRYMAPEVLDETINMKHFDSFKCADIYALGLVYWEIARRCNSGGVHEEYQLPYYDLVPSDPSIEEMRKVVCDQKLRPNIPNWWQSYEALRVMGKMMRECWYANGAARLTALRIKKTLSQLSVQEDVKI

The next experiment deals with GTP-binding protein 4 (Homo sapiens, UniProt Q9BZE4).
Experiment [1] concerns the target Tyrosine-protein kinase JAK1 (Homo sapiens, UniProt P23458).
The next experiment deals with T2, Septin-9 (Homo sapiens, UniProt Q9UHD8).
T2 sequence (Q9UHD8 whole entry): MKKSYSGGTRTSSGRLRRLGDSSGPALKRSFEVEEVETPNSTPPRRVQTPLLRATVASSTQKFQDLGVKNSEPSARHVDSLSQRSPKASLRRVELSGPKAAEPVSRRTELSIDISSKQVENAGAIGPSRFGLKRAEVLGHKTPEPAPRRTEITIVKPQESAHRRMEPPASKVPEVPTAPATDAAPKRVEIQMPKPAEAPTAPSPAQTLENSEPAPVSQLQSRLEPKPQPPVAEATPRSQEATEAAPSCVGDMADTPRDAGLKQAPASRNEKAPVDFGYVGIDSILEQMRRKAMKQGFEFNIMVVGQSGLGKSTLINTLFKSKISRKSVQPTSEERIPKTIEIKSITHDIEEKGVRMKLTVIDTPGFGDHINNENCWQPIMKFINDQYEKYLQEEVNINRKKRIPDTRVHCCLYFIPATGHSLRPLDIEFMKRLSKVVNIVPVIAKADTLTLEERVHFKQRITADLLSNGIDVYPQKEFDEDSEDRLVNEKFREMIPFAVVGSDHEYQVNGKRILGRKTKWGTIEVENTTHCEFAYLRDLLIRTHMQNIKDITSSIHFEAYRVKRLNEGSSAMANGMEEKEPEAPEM

For experiment [2], the target named is T3, Serine/threonine-protein kinase TAO2 (Homo sapiens, UniProt Q9UL54).
T3 sequence (Q9UL54 whole entry): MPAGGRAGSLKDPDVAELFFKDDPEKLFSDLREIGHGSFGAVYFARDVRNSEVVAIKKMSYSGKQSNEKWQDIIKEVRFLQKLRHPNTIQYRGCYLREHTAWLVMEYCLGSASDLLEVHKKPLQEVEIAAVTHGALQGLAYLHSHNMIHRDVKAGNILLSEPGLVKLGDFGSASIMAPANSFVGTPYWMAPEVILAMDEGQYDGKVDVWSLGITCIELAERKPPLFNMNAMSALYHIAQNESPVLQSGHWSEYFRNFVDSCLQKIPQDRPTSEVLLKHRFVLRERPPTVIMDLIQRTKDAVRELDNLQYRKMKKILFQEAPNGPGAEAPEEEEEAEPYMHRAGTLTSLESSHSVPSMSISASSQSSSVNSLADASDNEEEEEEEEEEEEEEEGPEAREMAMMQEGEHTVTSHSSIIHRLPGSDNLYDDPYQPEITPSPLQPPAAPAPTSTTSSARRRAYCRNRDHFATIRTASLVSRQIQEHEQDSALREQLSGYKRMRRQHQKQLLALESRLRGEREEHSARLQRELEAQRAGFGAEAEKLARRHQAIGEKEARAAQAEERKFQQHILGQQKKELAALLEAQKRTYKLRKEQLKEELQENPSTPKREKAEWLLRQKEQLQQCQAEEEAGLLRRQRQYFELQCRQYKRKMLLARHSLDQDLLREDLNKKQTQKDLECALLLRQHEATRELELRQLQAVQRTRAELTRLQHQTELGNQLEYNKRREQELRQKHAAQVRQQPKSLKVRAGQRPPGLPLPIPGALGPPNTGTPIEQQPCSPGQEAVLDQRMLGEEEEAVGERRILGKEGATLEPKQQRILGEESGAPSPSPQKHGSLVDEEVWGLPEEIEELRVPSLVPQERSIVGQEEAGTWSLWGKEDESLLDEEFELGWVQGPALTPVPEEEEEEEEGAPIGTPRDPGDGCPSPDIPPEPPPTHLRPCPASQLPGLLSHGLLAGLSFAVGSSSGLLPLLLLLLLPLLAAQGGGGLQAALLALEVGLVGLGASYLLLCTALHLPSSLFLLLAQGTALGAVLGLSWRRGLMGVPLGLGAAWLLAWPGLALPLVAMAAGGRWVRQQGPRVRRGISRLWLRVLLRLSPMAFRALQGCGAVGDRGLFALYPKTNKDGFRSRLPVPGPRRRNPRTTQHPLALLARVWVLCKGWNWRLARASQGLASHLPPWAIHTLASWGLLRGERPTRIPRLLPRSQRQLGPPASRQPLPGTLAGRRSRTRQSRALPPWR

The target in experiment [3] is T4, Serine/threonine-protein kinase ULK3 (Homo sapiens, UniProt Q6PHR2).
T4 sequence (Q6PHR2 whole entry): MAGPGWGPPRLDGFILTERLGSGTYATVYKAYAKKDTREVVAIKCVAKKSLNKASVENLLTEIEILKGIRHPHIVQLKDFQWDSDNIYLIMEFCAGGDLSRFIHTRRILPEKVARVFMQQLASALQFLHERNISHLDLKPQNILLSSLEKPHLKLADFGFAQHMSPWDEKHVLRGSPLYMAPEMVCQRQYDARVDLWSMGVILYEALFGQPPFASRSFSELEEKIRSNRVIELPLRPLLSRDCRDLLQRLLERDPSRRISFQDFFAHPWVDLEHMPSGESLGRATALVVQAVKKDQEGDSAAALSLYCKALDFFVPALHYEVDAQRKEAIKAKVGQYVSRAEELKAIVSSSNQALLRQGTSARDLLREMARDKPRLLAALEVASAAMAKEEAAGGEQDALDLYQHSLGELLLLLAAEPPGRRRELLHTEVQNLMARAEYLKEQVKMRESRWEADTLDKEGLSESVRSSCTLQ

The target of experiment [4] is Casein kinase I isoform alpha (Homo sapiens, UniProt P48729).

Experimental findings from ChEMBL document CHEMBL3991601, “The target landscape of clinical kinase drugs” (Science, 2017) are described below.

For orientation: Kd means the free concentration of one partner at which half of the binding sites on the other are occupied at equilibrium, for simple one-to-one binding.

Calls of active or inactive are those of the source. Rule as the data show it, for most assays here: actives have a measured Kd and inactives only a lower limit. Where only a bound is given, the exact number is not on record here.
Also: in the data inactive means no Kd found up to 30 µM.

Chain of Casein kinase I isoform alpha (P48729 whole entry, canonical isoform): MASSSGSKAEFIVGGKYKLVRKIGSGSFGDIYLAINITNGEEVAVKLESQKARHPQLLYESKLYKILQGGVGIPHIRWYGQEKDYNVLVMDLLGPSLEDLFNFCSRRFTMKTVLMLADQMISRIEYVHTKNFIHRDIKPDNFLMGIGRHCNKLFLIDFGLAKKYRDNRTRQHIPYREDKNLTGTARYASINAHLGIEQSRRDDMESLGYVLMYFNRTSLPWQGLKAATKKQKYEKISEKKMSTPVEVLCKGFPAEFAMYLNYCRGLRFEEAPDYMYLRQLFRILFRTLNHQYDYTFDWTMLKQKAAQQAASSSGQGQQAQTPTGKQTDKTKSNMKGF
Chain of Tyrosine-protein kinase JAK1 (P23458 whole entry): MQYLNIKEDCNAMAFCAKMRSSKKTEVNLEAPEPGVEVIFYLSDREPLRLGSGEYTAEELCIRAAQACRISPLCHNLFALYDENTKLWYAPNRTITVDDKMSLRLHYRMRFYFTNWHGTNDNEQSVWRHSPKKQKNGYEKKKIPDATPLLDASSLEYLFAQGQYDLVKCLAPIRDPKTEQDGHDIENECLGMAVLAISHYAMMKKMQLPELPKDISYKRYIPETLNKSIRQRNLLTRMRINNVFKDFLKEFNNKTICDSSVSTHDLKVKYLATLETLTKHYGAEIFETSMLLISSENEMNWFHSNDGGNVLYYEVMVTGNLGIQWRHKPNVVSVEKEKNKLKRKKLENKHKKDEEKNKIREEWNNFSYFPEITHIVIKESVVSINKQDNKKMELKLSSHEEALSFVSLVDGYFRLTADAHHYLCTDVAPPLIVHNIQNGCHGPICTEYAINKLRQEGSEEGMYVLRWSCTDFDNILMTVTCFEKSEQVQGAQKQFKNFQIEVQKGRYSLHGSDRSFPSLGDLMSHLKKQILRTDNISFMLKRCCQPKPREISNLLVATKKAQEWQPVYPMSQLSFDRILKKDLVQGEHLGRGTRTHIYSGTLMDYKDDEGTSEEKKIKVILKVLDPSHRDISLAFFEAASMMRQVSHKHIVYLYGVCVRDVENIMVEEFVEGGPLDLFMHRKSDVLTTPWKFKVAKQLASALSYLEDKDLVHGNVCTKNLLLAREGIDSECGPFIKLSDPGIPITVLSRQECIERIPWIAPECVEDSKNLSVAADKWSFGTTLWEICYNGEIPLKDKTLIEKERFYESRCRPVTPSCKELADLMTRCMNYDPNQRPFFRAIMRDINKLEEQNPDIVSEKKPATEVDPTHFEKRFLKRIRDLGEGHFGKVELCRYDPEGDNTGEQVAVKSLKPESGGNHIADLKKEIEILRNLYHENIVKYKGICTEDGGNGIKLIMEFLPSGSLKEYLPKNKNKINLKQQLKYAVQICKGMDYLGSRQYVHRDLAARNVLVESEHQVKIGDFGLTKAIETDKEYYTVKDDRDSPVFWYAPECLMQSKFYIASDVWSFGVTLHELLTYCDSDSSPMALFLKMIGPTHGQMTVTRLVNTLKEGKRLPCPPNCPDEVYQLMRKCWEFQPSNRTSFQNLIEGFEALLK

For `OCCn1cc(-c2cnc3nnn(Cc4ccc5ncccc5c4)c3n2)cn1` [PF-04217903], the Kd (at Activin receptor type-1B; on GTP-binding protein 4; in experiment [1]; at Septin-9; in experiment [2]; in experiment [3]) was > 30 µM (inactive) in each case.

In the case of `O=C(Nc1ccc(-c2ccnc(Nc3ccc(N4CCOCC4)cc3)n2)cc1)C1CCCN1` (stereo unspecified) [XL-019], the Kd (at Activin receptor type-1B; in experiment [4]; at GTP-binding protein 4; in experiment [1]; on Septin-9; in experiment [2]) was > 30 µM (inactive) in each case. Moreover, in experiment [3], the Kd is 0.297 µM (active).

For the compound `CCn1c(-c2nonc2N)nc2c(C#CC(C)(C)O)ncc(OC[C@H]3CCCNC3)c21` [GSK-690693], the Kd at Septin-9 was > 30 µM (inactive).

As to `Cc1cc(Nc2cc(N3CCN(C)CC3)nc(/C=C/c3ccccc3)n2)n[nH]1` [ENMD-2076], the Kd was > 30 µM (inactive) at Activin receptor type-1B; > 30 µM (inactive) at GTP-binding protein 4; > 30 µM (inactive) in experiment [1]; > 30 µM (inactive) on Septin-9; 0.476 µM (active) in experiment [3].

As for `COc1cc(CCc2cc(NC(=O)c3ccc(N4C[C@@H](C)N[C@@H](C)C4)cc3)n[nH]2)cc(OC)c1` [AZD-4547], the Kd (on Activin receptor type-1B; in experiment [4]; at GTP-binding protein 4; in experiment [1]; at Septin-9; in experiment [2]) was > 30 µM (inactive) in each case. The Kd in experiment [3] was > 30 µM (inactive).

As for `Nc1nc(N)c2nc(-c3cccc(O)c3)c(-c3cccc(O)c3)nc2n1` [TG100-115], the Kd at GTP-binding protein 4 and at Septin-9 was > 30 µM (inactive) throughout.

`CN1CCN(c2ccc3nc(-c4c(N)c5c(F)cccc5[nH]c4=O)[nH]c3c2)CC1` [DOVITINIB]: the Kd at GTP-binding protein 4 and at Septin-9 was > 30 µM (inactive) in each case.

Take `O=C(Nc1cccc(Cl)c1)Nc1ncc(CCNc2ncnc3ccsc23)s1` [SNS-314]: the Kd (at Activin receptor type-1B; on GTP-binding protein 4; in experiment [1]; at Septin-9; in experiment [2]; in experiment [3]) was > 30 µM (inactive) each time.

As for `CCc1cnn2c(NCc3ccc[n+]([O-])c3)cc(N3CCCC[C@H]3CCO)nc12` [DINACICLIB], the Kd was > 30 µM (inactive) on Activin receptor type-1B; > 30 µM (inactive) on GTP-binding protein 4; > 30 µM (inactive) in experiment [1]; > 30 µM (inactive) on Septin-9; 2.23 µM (active) in experiment [2]; > 30 µM (inactive) in experiment [3].

As for `Cc1nc(N)sc1-c1ccnc(Nc2ccc(N3CCOCC3)cc2)n1` [CYC-116], the Kd was 1.27 µM (active) at Activin receptor type-1B; > 30 µM (inactive) on GTP-binding protein 4; 5.39 µM (active) in experiment [1]; > 30 µM (inactive) on Septin-9; 0.801 µM (active) in experiment [3].

Take `CC(C)Nc1cc(-c2c[nH]c(C(=O)N[C@H](CO)c3cccc(Cl)c3)c2)c(Cl)cn1` [ULIXERTINIB]: the Kd (on Activin receptor type-1B; in experiment [4]; on GTP-binding protein 4; in experiment [1]; at Septin-9; in experiment [2]) was > 30 µM (inactive) throughout. The Kd in experiment [3] is > 30 µM (inactive).

For the compound `Cc1cn(-c2cc(NC(=O)c3ccc(C)c(Nc4nccc(-c5cccnc5)n4)c3)cc(C(F)(F)F)c2)cn1` [NILOTINIB], the Kd on GTP-binding protein 4 and at Septin-9 was > 30 µM (inactive) each time.
